This is an account of results in PubChem BioAssay AID179 (DTP/NCI, 2004).

Several values for one entry are separate records, joined by “and”; a condition that tells them apart may be missing. Equal values may be shown once. Activity calls are given as the source filed them.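 Rule for the calls: active = compounds giving half or more protection of infected cells from virus-caused growth loss, again on retest; inactive = the rest.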 *1 amine or outer side, *2 acyl side, *3 side chain or, on linkers, in order; H or OH if unused. Where a SMILES comes first, the peptide text is derived from it. [ ]: non-standard residue; d: D form. X21 = NC(=O)CCC(CN[*:1])C(=O)[*:2]

The assay deals with CEM cells HIV-1 protection, formazan growth assay. Put plainly: NCI AIDS Antiviral Assay. The conditions noted are these: for IC50: measured here: growth of uninfected CEM cells. In outline: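 Five concentrations of each compound were applied to infected and uninfected human CEM cells. Protection from HIV-1 was judged from growth measured with a soluble formazan assay.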

As to `CC1(C)C[N+](C)(C)C2(CCCC2)O1`, the EC50 is above 200 µM and the IC50 was above 200 µM.

In the case of `c1cnc(NCCSSCCNc2ncccn2)nc1`, the EC50 was above 200 µM and the IC50 is 38 µM.

Take `CS(=O)(=O)SCCCS(=O)(=O)O`: the EC50 is above 912 µM and the IC50 was above 912 µM.

Turning to `COC(=O)c1cc(C(=CCC[C@H]2CC[C@@]3(C)C(CCC4C3CC[C@@]3(C)C4CC[C@@H]3C(C)CCCC(C)C)C2)c2cc(Cl)c(O)c(C(=O)OC)c2)cc(Cl)c1O` (stereo partly specified), the EC50 was above 200 µM and the IC50 is above 200 µM.

Turning to `CC(NC(=O)CNC(=O)C(N)CO)C(=O)NC(CCC(N)=O)C(=O)NC(CCCCN)C(=O)N1CCCC1C(=O)NC(CCC(=O)O)C(=O)NC(CCC(=O)O)C(=O)NC(CCC(=O)O)C(=O)NC(CO)C(=O)NC(CO)C(=O)NC(CC(N)=O)C(=O)NC(C)C(=O)NC(Cc1cnc[nH]1)C(=O)NC(CO)C(=O)O` (stereo unspecified) (H-SGAQKPEEESSNAHS-OH; configuration not given here), the EC50 was above 100 µM and the IC50 is above 100 µM.

With `CCOC(=O)/C(=C\c1ccc(Br)cc1)C(C)=O`, the EC50 was above 120 µM and the concentration for half-maximal inhibition (IC50) was 70.8 µM.

Take `O=C1N=C2C=CC=CN2CC1O` (stereo unspecified): the EC50 was above 200 µM and the half-inhibitory concentration (IC50) was above 200 µM.

On to `O=c1c(Cl)c(Cl)cnn1-c1ccccc1`, for which the EC50 was above 126 µM; the IC50 is 0.288 µM and 2.63 µM.

For `COC(=O)C(C)(C)[C@@H]1OC(=O)N(S(=O)(=O)c2c(C)cc(C)cc2C)[C@H]1C(C)C`, the EC50 was above 200 µM and the IC50 stood at 50.1 µM.

Consider `O=S(=O)(C1=CC(S(=O)(=O)c2ccccc2)CN(Cc2ccccc2)C1c1cccc2ccccc12)c1ccccc1` (stereo unspecified), for which the outcome was inactive.

Take `Cc1cccc(/C(Br)=C2/OC(=O)c3ccccc32)c1`: the EC50 is above 200 µM and the IC50 turned out to be 182 µM.

Regarding `O=c1cc(NNc2ccccc2)[nH]c(=O)[nH]1`, the EC50 is above 200 µM and the IC50 stood at 1.02 µM.

As to `C/C=C(\C)C(=O)O[C@@H]1CC(C)(C)CC2C3=CCC4[C@]56CC[C@](O)(OC5)C(C)(C)C6CC[C@@]4(C)C3(C)CC[C@]21C(=O)O` (stereo partly specified), the EC50 was above 200 µM and the IC50 was found to be 18.2 µM.

Take `CN(C)C(=C1c2cc([N+](=O)[O-])ccc2-c2ccc([N+](=O)[O-])cc21)N(C)C`: the EC50 was above 200 µM and the IC50 amounted to 10.7 µM.

As for `COc1c(C)c(C/C=C(\C)CCCCO)c(OC)c2ccccc12`, the EC50 was above 200 µM and the IC50 came to 22.9 µM.

As to `Cc1nc(-c2nc(C)c(C(=O)NNC(=O)C[n+]3ccccc3)s2)sc1C(=O)NNC(=O)C[n+]1ccccc1`, the EC50 was above 57.5 µM and the concentration for half-maximal inhibition (IC50) was above 57.5 µM.

As for `O=Cc1cc(O)c(O)c(O)c1-c1c(C=O)cc(O)c(O)c1O`, the EC50 was above 174 µM and the IC50 came out at 34.7 µM.

With `CC(O)C1(CNc2cc(Cl)nc(N)n2)CCC1` (stereo unspecified), the EC50 was above 200 µM and the IC50 turned out to be 182 µM.

For `CN(C(=O)C12C3C4C1C1C2C3C41C(=O)N(C)C(C)(C)C)C(C)(C)C` (stereo unspecified), the EC50 was above 30.2 µM and the half-maximal inhibitory concentration (IC50) is above 30.2 µM.

Take `C1CSCCCSCCSCCCSC1`: the EC50 is above 18.2 µM and the half-inhibitory concentration (IC50) is above 18.2 µM.

Regarding `CCOP(=O)(OCC)C(C(=O)OC)C(=O)C(=O)Nc1cccc([N+](=O)[O-])c1` (stereo unspecified), the EC50 is above 617 µM and the IC50 was above 617 µM.

On to `CC(=O)OC1COC(n2c(=S)n(-c3ccccc3)c(=O)c3ccccc32)C(OC(C)=O)C1OC(C)=O` (stereo unspecified), for which the EC50 was above 36.3 µM and the IC50 is above 36.3 µM.

`OCC1=CC(NC2CC(CO)C(O)C(O)C2O)C(O)C(O)C1O` (stereo unspecified): the result was inactive.

Take `Nc1nc2c(N)cc(C(F)(F)F)cc2nc1-c1ccccc1`: the EC50 was above 17 µM and the IC50 is above 17 µM.

With `CCOc1ccccc1NC(=O)C(C#N)C1=C(Cl)C(=O)c2ccccc2C1=O` (stereo unspecified), the result was inactive.

Regarding `O=C(N=Nc1ccccc1Br)NNc1ccccc1Br`, the EC50 was above 200 µM and the IC50 was above 100 µM.

Consider `CC1=NS(=O)(=O)c2cc(Cl)ccc2N1`, for which the EC50 was above 562 µM; the IC50 was > 407 µM and 537 µM.

On to `CCCCNC(=O)C1C(=O)N(CCCC)C(=O)/C1=N\N` (stereo unspecified), for which the EC50 is above 25.7 µM and the IC50 is above 25.7 µM.

On to `COC(=O)c1c2c(c(-c3ccccc3)c3c1-c1nc(Cl)ccc1CC3)CCc1ccc(Cl)nc1-2`, for which the EC50 was above 20.4 µM and the IC50 was above 20.4 µM.

On to `COc1ccc(-c2c3c(nc4nc(SCCc5ccccc5)nc(N)c24)CCCC3)cc1OC`, for which the EC50 is above 200 µM and the IC50 was above 200 µM.

`O=C(O)CN(c1ccccc1Cl)S(=O)(=O)c1ccccc1`: the outcome was inactive.

Regarding `Cc1ccc(OCC2OC(n3cnc4nc(Nc5ccc(Cl)c(Cl)c5)nc(Cl)c43)CC2Oc2ccc(C)cc2)cc1` (stereo unspecified), the EC50 is above 100 µM and the IC50 was above 100 µM.

Turning to `NNC(=O)C1C(O)CCC2CN3CCc4c([nH]c5ccccc45)C3CC21` (stereo unspecified), the result was inactive.

On to `Cn1c(O)c(N=NC(=S)NC(=O)C23CC4CC(CC(C4)C2)C3)c2ccccc21`, for which the outcome was inactive.

For `COC(=O)/C=C1\C=CC=CC12C(C(=O)OC)c1ccccc1C(C(=O)OC)C2C(=O)OC` (stereo unspecified), the EC50 is above 200 µM and the IC50 is above 200 µM.

For the compound `Cc1ccc(C(=O)OC[C@H]2CC[C@@H](n3cc(N(C)C4CCCCC4)c(=O)[nH]c3=O)O2)cc1`, the EC50 was above 200 µM and the IC50 was 53.7 µM.

With `C[N+](C)(C)CC1CCC/C1=N\OC(=O)c1ccccc1` (stereo unspecified), the EC50 was above 617 µM and the IC50 is above 617 µM.

In the case of `Nc1ncnc2c1ncn2C1C(=O)C(CO)C1CO` (stereo unspecified), the EC50 is above 234 µM and the IC50 was above 234 µM.

In the case of `O=C(O)C(=Cc1ccc(-c2ccc([N+](=O)[O-])cc2)o1)C(=O)O`, the EC50 is above 200 µM and the IC50 was above 200 µM.

Regarding `COc1cccc(C2NC(=O)c3c(n[nH]c3N)S2)c1O` (stereo unspecified), the EC50 is above 200 µM and the IC50 was above 200 µM.

Take `CCC(C)C(NC(=O)C(CCC(N)=O)NC(=O)C1CCCN1)C(=O)NC(C(=O)NC(CC(C)C)C(=O)NC(Cc1c[nH]c2ccccc12)C(=O)NCC(CCC(N)=O)C(=O)NC(CCCN=C(N)N)C(=O)N1CCCC1C(=O)NC(CC(C)C)C(=O)O)C(C)O` (stereo unspecified) (H-PQITLW[X21]RPL-OH; configuration not given here): the outcome was inactive.

With `CC1(C)CC(/C=C\c2coc3ccc(Cl)cc3c2=O)=C(C#N)C(=O)O1`, the EC50 was above 7.59 µM and the IC50 was above 7.59 µM.

Consider `O=C(Nc1cc(S(=O)(=O)O)cc2cc(S(=O)(=O)O)c(N=Nc3cc(Nc4nc(Cl)nc(Nc5ccc(S(=O)(=O)O)cc5)n4)ccc3S(=O)(=O)O)c(O)c12)c1ccccc1`, for which the result was inactive.

Consider `CCCCOP(=O)(OCCCC)OP(=O)(OCCCC)OCCCC`, for which the EC50 was above 200 µM and the half-inhibitory concentration (IC50) was above 200 µM.

In the case of `O=C1C(=O)N(c2ccc(Cl)cc2)C(=O)C(=O)C1c1nc2ccccc2o1`, the result was inactive.

In the case of `O=C(/C=C/c1ccc([N+](=O)[O-])cc1)c1ccccc1`, the EC50 is above 4.07 µM and the IC50 is above 4.07 µM.

`C=C1CCC/C(=N/NC(N)=O)C12CC2`: the EC50 is above 200 µM and the half-maximal inhibitory concentration (IC50) was above 200 µM.

As for `O=c1cc(-c2ccc(O)c(O)c2)oc2cc(OC3OC(CO)C(O)C(O)C3O)cc(O)c12` (stereo unspecified), the EC50 is above 200 µM and the IC50 was 15.5 µM.

As for `O=c1[nH]c(/C=C(\O)c2ccncc2)nc2ccccc12`, the EC50 is above 2.82 µM and the IC50 is above 2.82 µM.

As for `CC(C)NCCCCCNc1cccc2cccnc12`, the EC50 was above 200 µM and the IC50 was 28.8 µM.

In the case of `COc1ccc(CCN=C2OCc3ccccc32)cc1OC`, the EC50 is above 200 µM and the IC50 came out at 11.7 µM.

On to `NC(CSS(=O)(=O)O)=NCCCCN=C(N)CSS(=O)(=O)O`, for which the EC50 is above 200 µM and the IC50 was above 200 µM.

Turning to `CC(=O)NC1CC2Oc3ccc(C)cc3C(C)(O2)C1O` (stereo unspecified), the outcome was inactive.

For `COc1cc2c(c3oc(=O)c4c(c13)CCC4=O)[C@@H]1C=CO[C@@H]1O2`, the EC50 was above 100 µM and the IC50 was determined as 69.2 µM.

For `O=C1c2ccccc2CC12Cc1ccc3c(c1C2)CCC3` (stereo unspecified), the EC50 was above 200 µM and the 50% inhibitory concentration (IC50) turned out to be 89.1 µM.

`[Cl][Sn]([c]1ccccc1)([c]1ccccc1)[c]1ccccc1`: the outcome was inactive.

In the case of `COc1nn(Cc2ccccn2)c2ccc([N+](=O)[O-])cc12`, the EC50 is above 200 µM and the IC50 is 135 µM.

As for `CC(Cc1ccccc1)N(C)Cc1nc(C2CCC([N+](=O)[O-])O2)no1` (stereo unspecified), the EC50 is above 200 µM and the IC50 came to 36.3 µM.

`C=CCc1cccc(/C=N\N=C(/N)NO)c1O`: the result was inactive.

As to `CC(C)(C)[Si](C)(C)OCC#C[C@@]1(O)CCCCC1CC(Sc1ccccc1)Sc1ccccc1` (stereo partly specified), the EC50 was above 200 µM and the IC50 amounted to 12.6 µM.

On to `Cc1cn(C2CC(O)C(CO)O2)c(=O)n2nnnc12` (stereo unspecified), for which the outcome was inactive.

Consider `CN1Cc2cc(O)c(O)cc2C(O)C1` (stereo unspecified), for which the EC50 is above 200 µM and the 50% inhibitory concentration (IC50) came to 102 µM.

As for `COc1cc(/C=C/C(=O)OCCc2ccccc2)ccc1O`, the EC50 is above 8.32 µM and the IC50 was found to be 5.13 µM.

As to `COC(=O)c1ccccc1C#CC#Cc1ccccc1C(=O)OC`, the EC50 was above 200 µM and the IC50 is 24 µM.

Regarding `O=C1/C(=C/c2cccc3ccccc23)Cc2ccccc21`, the EC50 was above 200 µM and the IC50 came to 97.7 µM.

For `O=C(/C=C/c1ccc(Cl)cc1)c1ccc(Cl)c(Cl)c1`, the EC50 was above 32.4 µM and the IC50 is above 32.4 µM.

Turning to `COc1ccc(N2C(=O)/C(=C\c3cc(OC)c(OC)c(OC)c3)S(=O)(=O)C2c2ccccc2)cc1` (stereo unspecified), the EC50 was above 200 µM and the IC50 was 41.7 µM.

As to `C[C@@]12C[C@@H](c3ccccc3O1)N1CCSC1=N2`, the outcome was inactive.

Consider `CCOC(=O)NC(Nc1ccc(C)cc1)(C(F)(F)F)C(F)(F)F`, for which the EC50 was above 200 µM and the IC50 was above 200 µM.

Consider `CCC1(O)N=C(c2ccccc2)c2ccccc2-n2cccc21` (stereo unspecified), for which the EC50 is above 200 µM and the IC50 was determined as 166 µM.
